Results published in US20250082654A1, “AZD3355 (LESOGABERAN) FOR TREATMENT AND PREVENTION OF NONALCOHOLIC STEATOHEPATITIS (NASH), LIVER FIBROSIS, AND OTHER LIVER CONDITIONS” (Icahn School of Medicine at Mount Sinai, priority 2018, published 2025).

Key:
[1] = test system: phHSCs; experiment: Cell cytotoxicity assay (MTS); assay type: cell-based, human; details: 30 nM or 100 nM, 48 or 72 hours
Experimental: (§1) At the beginning of each experiment, stellate cells (LX-2 cells or phHSCs) were serum-starved overnight in DMEM supplied with 0.1% BSA (without antibiotic) to synchronize metabolic activities of the cells. The cells were then exposed to different working concentration of either AZD3355 or sorafenib for 24, 48 and 72 hours.
(§2) 5,000 LX-2 cells or 10,000 phHSCs were plated per well in 96 well plates. Cells were serum starved overnight in DMEM supplemented with 0.1% BSA (without antibiotic). Cells were then incubated with different concentrations of AZD3355 for indicated durations and MTS assays were accomplished using CellTiter 96 AQueous One Solution Cell Proliferation Assay kit (Promega, WI) according to manufacturer's protocol.

[2] = test system: LX-2 cells; experiment: Cell cytotoxicity assay (MTS); assay type: cell-based, human; details: 0-300 nM, 24, 48 or 72 hours
Experimental: as §1, §2

## NC[C@@H](F)C[PH](=O)O [AZD3355, [(2R)-3-amino-2-fluoropropyl] phosphinic acid]
[1]
  cell cytotoxicity (MTS): no significant cell cytotoxicity
[2]
  cell cytotoxicity (MTS): no significant cell cytotoxicity observed except for in LX-2 cells at 300 nM
